Common to all, as to test: Minimal inhibitory concentration (MIC), NCCLS M7-A5 procedure
Format in all cases: cell-based

Assay [1] has as its system Staphylococcus aureus ATCC25923. Particulars: read-out: Minimal inhibitory concentration (MIC) SA 25923. On the procedure:
(§1) Minimal inhibitory concentrations (MIC) were determined in accordance with the National Committee for Clinical Laboratory Standards (NCCLS) procedure [M7-A5, 2001].
(§2) The results obtained are summarized in table 1 and are expressed in jig/ml. In this table 1, EC 25922 means Escherichia coli ATCC25922, EC DC2 means Escherichia coli DC2, SA 25923 means Staphylococcus aureus ATCC25923 and SA 101 means Staphylococcus aureus 101. (ATCC=American Type Culture Collection)
(§3) M7-A5* (2001): Methods for Dilution Antimicrobial Susceptibility Tests for Bacteria that Grow Aerobically; Approved Standard—Fifth Edition American National Standard.

For assay [2], the system named is Staphylococcus aureus 101. Particulars: read-out: Minimal inhibitory concentration (MIC) SA 101. On the procedure:
as §1, §2, §3

Assay [3] deals with Escherichia coli ATCC25922. Particulars: read-out: Minimal inhibitory concentration (MIC) EC 25922. On the procedure: as §1, §2, §3
In another assay the test system is Escherichia coli DC2. Particulars: read-out: Minimal inhibitory concentration (MIC) EC DC2. On the procedure: as §1, §2, §3

Converted amounts (≈) assume the structure as drawn. A value given as a limit tells only on which side of the number the result lay.

Take `Oc1cc2c(cc1O)CC(c1ccc(Oc3ccccc3)cc1)NC2` (stereo not shown) [Example 1, 3-(4-Phenoxy-phenyl)-1,2,3,4-tetrahydro-isoquinoline-6,7-diol]: the MIC in assay [1] was 8 µg/mL (≈ 24 µM); in assay [2] it was 8 µg/mL (≈ 24 µM); in assay [3], 32 µg/mL (≈ 96 µM); with Escherichia coli DC2, 8 µg/mL (≈ 24 µM).
For `Oc1cc2c(cc1O)CN(Cc1ccccc1)C(c1ccc(Oc3ccccc3)cc1)C2` (stereo not shown) [Example 2, 2-Benzyl-3-(4-phenoxy-phenyl)-1,2,3,4-tetrahydro-isoquinoline-6,7-diol], the MIC is 64 µg/mL (≈ 151 µM) in assay [1], 32 µg/mL (≈ 75.6 µM) in assay [2], over 128 µg/mL in assay [3] and 64 µg/mL (≈ 151 µM) with Escherichia coli DC2.
In the case of `CC1NC(c2ccc(Oc3ccccc3)cc2)Cc2cc(O)c(O)cc21` (stereo not shown) [Example 3, 1-Methyl-3-(4-phenoxy-phenyl)-1,2,3,4-tetrahydro-isoquinoline-6,7-diol], the MIC is 16 µg/mL (≈ 46.1 µM) in assay [1] and 32 µg/mL (≈ 92.1 µM) with Escherichia coli DC2.
The corresponding values for `COc1ccc(C2Cc3cc(O)c(O)cc3CN2)c2ccccc12` (stereo not shown) [Example 4, 3-(4-Methoxy-naphthalen-1-yl)-1,2,3,4-tetrahydro-isoquinoline-6,7-diol] are 32 µg/mL (≈ 99.6 µM) and 32 µg/mL (≈ 99.6 µM).
`Oc1cc2c(cc1O)CC(c1ccc(O)c3ccccc13)NC2` (stereo not shown) [Example 5, 3-(4-Hydroxy-naphthalen-1-yl)-1,2,3,4-tetrahydro-isoquinoline-6,7-diol]: the values for the MIC (in assay [1]; in the assay with Escherichia coli DC2) were 32 µg/mL (≈ 104 µM) and 16 µg/mL (≈ 52.1 µM), respectively.
For the compound `OCC1Cc2cc(O)c(O)cc2CN1` (stereo not shown) [Example 6, 3-Hydroxymethyl-1,2,3,4-tetrahydro-isoquinoline-6,7-diol], the MIC in assay [1] was found to be 16 µg/mL (≈ 82 µM); in assay [2], 16 µg/mL (≈ 82 µM); in assay [3], 64 µg/mL (≈ 328 µM); in the assay on Escherichia coli DC2, 32 µg/mL (≈ 164 µM).
As to `Oc1cc2c(cc1O)CC(c1ccc3oc4ccccc4c3c1)NC2` (stereo not shown) [Example 7, 3-Dibenzofuran-2-yl-1,2,3,4-tetrahydro-isoquinoline-6,7-diol], the MIC in assay [1] is 8 µg/mL (≈ 24.1 µM); in assay [2] it was 16 µg/mL (≈ 48.3 µM); in assay [3], 64 µg/mL (≈ 193 µM); in the assay with Escherichia coli DC2, 32 µg/mL (≈ 96.6 µM).
On to `Oc1cc2c(cc1O)CC(c1ccc(Sc3ccccc3)cc1)NC2` (stereo not shown) [Example 8, 3-(4-Phenylsulfanyl-phenyl)-1,2,3,4-tetrahydro-isoquinoline-6,7-diol], for which the MIC worked out at 8 µg/mL (≈ 22.9 µM) in assay [1], 32 µg/mL (≈ 91.6 µM) in assay [2], 64 µg/mL (≈ 183 µM) in assay [3] and 32 µg/mL (≈ 91.6 µM) in the assay with Escherichia coli DC2.
Consider `Oc1cc2c(cc1O)CC(c1ccc(Cl)cc1Cl)NC2` (stereo not shown) [Example 9, 3-(2,4-Dichloro-phenyl)-1,2,3,4-tetrahydro-isoquinoline-6,7-diol], for which the MIC in assay [1] was 64 µg/mL (≈ 206 µM); in assay [2], 64 µg/mL (≈ 206 µM); in assay [3], 128 µg/mL (≈ 413 µM); in the assay with Escherichia coli DC2 it was 64 µg/mL (≈ 206 µM).
For `Oc1cc2c(cc1O)CC(COc1ccc(Cl)cc1Cl)NC2` (stereo not shown) [Example 10, 3-(2,4-Dichloro-phenoxymethyl)-1,2,3,4-tetrahydro-isoquinoline-6,7-diol], the MIC in assay [1] came to 8 µg/mL (≈ 23.5 µM); in assay [2], 16 µg/mL (≈ 47 µM); in assay [3], 128 µg/mL (≈ 376 µM); with Escherichia coli DC2 it was 2 µg/mL (≈ 5.88 µM).
Turning to `Oc1cc2c(cc1O)CN(Cc1ccccc1)C(COc1ccc(Cl)cc1Cl)C2` (stereo not shown) [Example 11, 2-Benzyl-3-(2,4-dichloro-phenoxymethyl)-1,2,3,4-tetrahydro-isoquinoline-6,7-diol], the MIC in assay [1] was 8 µg/mL (≈ 18.6 µM); in assay [2], 8 µg/mL (≈ 18.6 µM); in assay [3], over 128 µg/mL; in the assay with Escherichia coli DC2, over 128 µg/mL.
Regarding `Oc1cc2c(cc1O)CC(c1ccc(-c3ccccc3)cc1)NC2` (stereo not shown) [Example 12, 3-Biphenyl-4-yl-1,2,3,4-tetrahydro-isoquinoline-6,7-diol], the MIC in assay [1] was determined as 4 µg/mL (≈ 12.6 µM); in assay [2], 16 µg/mL (≈ 50.4 µM); in assay [3] it was 16 µg/mL (≈ 50.4 µM); in the assay with Escherichia coli DC2, 8 µg/mL (≈ 25.2 µM).
For the compound `Oc1cc2c(cc1O)CC(COc1ccc(Cl)c(Cl)c1)NC2` (stereo not shown) [Example 13, 3-(3,4-Dichloro-phenoxymethyl)-1,2,3,4-tetrahydro-isoquinoline-6,7-diol], the MIC in assay [1] was 16 µg/mL (≈ 47 µM); in assay [2], 16 µg/mL (≈ 47 µM); in assay [3] it was over 128 µg/mL; with Escherichia coli DC2 it was 16 µg/mL (≈ 47 µM).
Consider `Oc1cc2c(cc1O)CC(COc1cc(Cl)ccc1Cl)NC2` (stereo not shown) [Example 14, 3-(2,5-Dichloro-phenoxymethyl)-1,2,3,4-tetrahydro-isoquinoline-6,7-diol], for which the MIC stood at 64 µg/mL (≈ 188 µM) in assay [1], 64 µg/mL (≈ 188 µM) in assay [2], 128 µg/mL (≈ 376 µM) in assay [3] and 32 µg/mL (≈ 94.1 µM) with Escherichia coli DC2.
In the case of `Oc1cc2c(cc1O)CC(c1ccc(Cl)cc1)NC2` (stereo not shown) [Example 15, 3-(4-Chloro-phenyl)-1,2,3,4-tetrahydro-isoquinoline-6,7-diol], the MIC worked out at 16 µg/mL (≈ 58 µM) in assay [1], 32 µg/mL (≈ 116 µM) in assay [2], 128 µg/mL (≈ 464 µM) in assay [3] and 32 µg/mL (≈ 116 µM) with Escherichia coli DC2.
With `Oc1cc2c(cc1O)CC(c1ccc(Br)cc1)NC2` (stereo not shown) [Example 16, 3-(4-Bromo-phenyl)-1,2,3,4-tetrahydro-isoquinoline-6,7-diol], the MIC in assay [1] is 8 µg/mL (≈ 25 µM); in assay [2], 64 µg/mL (≈ 200 µM); in assay [3] it was over 128 µg/mL; with Escherichia coli DC2 it was 32 µg/mL (≈ 99.9 µM).
In the case of `Oc1cc2c(cc1O)CC(c1ccc(-c3ccc(C(F)(F)F)cc3)cc1)NC2` (stereo not shown) [Example 17, 3-(4′-Trifluoromethyl-biphenyl-4-yl)-1,2,3,4-tetrahydro-isoquinoline-6,7-diol], the MIC in assay [1] came to 4 µg/mL (≈ 10.4 µM); in assay [2], 8 µg/mL (≈ 20.8 µM); in assay [3], 64 µg/mL (≈ 166 µM); with Escherichia coli DC2, 8 µg/mL (≈ 20.8 µM).
With `CN(C)c1ccc(-c2ccc(C3Cc4cc(O)c(O)cc4CN3)cc2)cc1` (stereo not shown) [Example 18, 3-(4′-Dimethylamino-biphenyl-4-yl)-1,2,3,4-tetrahydro-isoquinoline-6,7-diol], the MIC in assay [1] is 4 µg/mL (≈ 11.1 µM); in assay [2], 16 µg/mL (≈ 44.4 µM); in assay [3], over 128 µg/mL; with Escherichia coli DC2, 8 µg/mL (≈ 22.2 µM).
The corresponding values for `Oc1ccc(-c2ccc(C3Cc4cc(O)c(O)cc4CN3)cc2)cc1` (stereo not shown) [Example 19, 3-(4′-Hydroxy-biphenyl-4-yl)-1,2,3,4-tetrahydro-isoquinoline-6,7-diol] are 128 µg/mL (≈ 384 µM), 128 µg/mL (≈ 384 µM), over 128 µg/mL and 64 µg/mL (≈ 192 µM).
With `Oc1cc2c(cc1O)CC(c1ccc(-c3ccccc3O)cc1)NC2` (stereo not shown) [Example 20, 3-(2′-Hydroxy-biphenyl-4-yl)-1,2,3,4-tetrahydro-isoquinoline-6,7-diol], the MIC in assay [1] is 16 µg/mL (≈ 48 µM); in assay [2] it was 32 µg/mL (≈ 96 µM); in assay [3], 128 µg/mL (≈ 384 µM); in the assay on Escherichia coli DC2, 32 µg/mL (≈ 96 µM).
Consider `Oc1cc2c(cc1O)CC(c1ccc(-c3ccc(F)cc3F)cc1)NC2` (stereo not shown) [Example 21, 3-(2′,4′-Difluoro-biphenyl-4-yl)-1,2,3,4-tetrahydro-isoquinoline-6,7-diol], for which the MIC in assay [1] was determined as 8 µg/mL (≈ 22.6 µM); in assay [2] it was 8 µg/mL (≈ 22.6 µM); in assay [3] it was 32 µg/mL (≈ 90.6 µM); in the assay with Escherichia coli DC2, 8 µg/mL (≈ 22.6 µM).
Take `N#Cc1cccc(-c2ccc(C3Cc4cc(O)c(O)cc4CN3)cc2)c1` (stereo not shown) [Example 22, 4′-(6,7-Dihydroxy-1,2,3,4-tetrahydro-isoquinolin-3-yl)-biphenyl-3-carbonitrile]: the MIC was 128 µg/mL (≈ 374 µM) in assay [1], over 128 µg/mL in assay [2], over 128 µg/mL in assay [3] and 64 µg/mL (≈ 187 µM) in the assay on Escherichia coli DC2.

The record behind these values is patent US7371762B2, “3-substituted 6,7-dihydroxytetrahydroisoquinoline derivatives for use as antibacterial agents” (Arpida AG, priority 2001, dated 2008).
